Reference: US20240228499A1, “MASP-2 INHIBITORS AND METHODS OF USE” (Omeros Corporation, priority 2022, published 2024)
pKi: −log10 of the molar value. Structures can show the parent of a compound that is named as a salt.

Assays:
[1] = target: T1, human a-thrombin (Homo sapiens, UniProt P00734); assay: Enzymatic assay for thrombin (fluorogenic peptide substrate Boc-VPR-AMC); format: biochemical; conditions: room temperature, 20 mM Hepes pH 7.4, 20 min
T1 construct: enzyme (human a-thrombin (BioPharm® Lab.)); purchased BioPharm Lab
Description: The thrombin assay utilizes a fluorogenic peptide substrate (Boc-VPR-AMC (R&D Systems) and was run at room temperature in an assay buffer containing 20 mM Hepes, pH 7.4, 140 mM NaCl and 0.1% Tween 20. Assay parameters were adjusted such that the assay was linear with respect to time, enzyme, and substrate concentrations. Under these optimized assays conditions, IC50 values were equivalent to Ki values, except in a few cases of “tight binding” inhibitors. Cases of “tight binding” or possible “slow binding” inhibitors were handled by the methods described in Copeland R.A. (2013) Evaluation of Enzyme Inhibitors in Drug Discovery. 2nd Ed. John Wiley and Sons, Inc., Chapters 5-7.
The thrombin assay protocol was carried out as follows. Test compounds were serially diluted in DMSO and then 100 nL of each dilution was transferred to the assay plate(s). 10 μL of Assay Buffer was added, followed by 15 μL of enzyme (human a-thrombin (BioPharm® Lab.)) in assay buffer. 15 μL of substrate in assay buffer was then added and the sample mixed to start the reaction. After 20 min at room temperature, 15 μL of a stop solution (0.1 M acetic acid) was added, the sample was mixed, and the plates were read on a SpectraMax® i3× Microplate Reader with the data exported as Excel files. Each assay plate included a “no inhibitor” (DMSO only) control, a “no enzyme” control, and a reference inhibitor control. % Activity values=100*(ave. test comp. fluorescence−ave. “no enz” fluorescence)/(ave. “DMSO only” fluorescence−ave. “no enz” fluorescence). IC50 and Ki values were very reproducible, with values falling well within +2-fold.

[2] = target: T2, MASP-2 (CCP1-CCP2-SP) (Homo sapiens, UniProt O00187); assay: Enzymatic assay for MASP-2 inhibitory activity (fluorogenic substrate); format: biochemical; conditions: room temperature, 20 mM Hepes pH 7.4, 20 min
T2 construct: 15 μL of Enzyme MASP-2 (CCP1-CCP2-SP) in Assay Buffer
Description: The MASP-2 assay utilizes a fluorogenic substrate, based on the cleavage site for its natural substrate C2. The assay was run at room temperature in an assay buffer containing 20 mM HEPES, pH 7.4, 140 mM NaCl and 0.1% Tween 20. Assay parameters were adjusted such that the assay was linear with respect to time, enzyme, and substrate concentrations. Under the optimized assays conditions, IC50 values were equivalent to Ki values, except in the few cases of “tight binding” inhibitors. Cases of “tight binding” or possible “slow binding” inhibitors were handled by the methods described in Copeland R. A. (2013) Evaluation of Enzyme Inhibitors in Drug Discovery. 2nd Ed., John Wiley and Sons, Inc., Chapters 5-7.
The MASP-2 assay protocol was carried out as follows. Test compounds were serially diluted in DMSO and then 100 nL of each dilution was transferred to the assay plate(s). 10 μL of Assay Buffer was added, followed by 15 μL of Enzyme MASP-2 (CCP1-CCP2-SP) in Assay Buffer. 15 μL of Substrate in Assay Buffer was then added and the mixture was mixed to start the reaction. After 20 min at room temperature, 15 μL of a stop solution (0.1 M acetic acid) was added, the sample was mixed, and the plates were read on a SpectraMax i3× Microplate Reader with the data exported as an Excel file. Each assay plate included a “no inhibitor” (DMSO only) control, a “no enzyme” control, and a reference inhibitor control. % Activity values=100*(average test comp. fluorescence−average “no enzyme” fluorescence)/(average “DMSO only” fluorescence−average “no enzyme” fluorescence). IC50 and Ki replicate values were very reproducible, with values well within +2-fold.

T2 sequence (O00187 287-686 limits assumed): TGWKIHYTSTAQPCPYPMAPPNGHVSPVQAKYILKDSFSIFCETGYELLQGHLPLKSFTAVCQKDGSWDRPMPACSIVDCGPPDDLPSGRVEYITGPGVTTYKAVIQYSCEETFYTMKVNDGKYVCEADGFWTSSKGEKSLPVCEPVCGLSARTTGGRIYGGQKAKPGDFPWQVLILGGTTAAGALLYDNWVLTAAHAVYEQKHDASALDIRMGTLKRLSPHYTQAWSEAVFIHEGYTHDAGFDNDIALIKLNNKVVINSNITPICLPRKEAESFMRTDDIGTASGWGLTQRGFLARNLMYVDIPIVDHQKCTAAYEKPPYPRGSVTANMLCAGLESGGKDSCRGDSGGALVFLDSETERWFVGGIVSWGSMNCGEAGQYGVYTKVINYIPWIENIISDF

SMILES: N#Cc1cc(F)cc(CNc2cnc3n(c2=O)[C@H](C(=O)N[C@@H]2CCc4nc(N)ccc42)CC3)c1 [Compound 93, (S)-N-((R)-2-amino-6,7-dihydro-5H-cyclopenta[b]pyridin-5-yl)-3-((3-cyano-5-fluorobenzyl)amino)-4-oxo-4,6,7,8-tetrahydro-pyrrolo[1,2-a]pyrimidine-6-carboxamide]
- pKi [1]: 5.60 to 6.30
- pKi [2]: > 6.30

SMILES: Cc1cccc(CNc2cnc3n(c2=O)[C@H](C(=O)NCc2ccc(N)nc2C)CC3)c1C [Compound 30, (S)-N-((6-amino-2-methylpyridin-3-yl)methyl)-3-((2,3-dimethylbenzyl)amino)-4-oxo-4,6,7,8-tetrahydropyrrolo[1,2-a]pyrimidine-6-carboxamide, trifluoroacetate]
- pKi [1]: 5.60 to 6.30
- pKi [2]: > 6.30

SMILES: Cc1nc(N)ccc1CNC(=O)[C@@H]1CCc2ncc(NCc3cccc(C#N)c3)c(=O)n21 [Compound 73, (S)-N-((6-amino-2-methylpyridin-3-yl)methyl)-3-((3-cyanobenzyl)amino)-4-oxo-4,6,7,8-tetrahydropyrrolo[1,2-a]pyrimidine-6-carboxamide]
- pKi [1]: 5.60 to 6.30
- pKi [2]: > 6.30

SMILES: Cc1cc(F)cc(CNc2cnc3n(c2=O)[C@H](C(=O)NCc2ccc(N)nc2C)CC3)c1 [Compound 34, (S)-N-((6-amino-2-methylpyridin-3-yl)methyl)-3-((3-fluoro-5-methylbenzyl)amino)-4-oxo-4,6,7,8-tetrahydropyrrolo[1,2-a]pyrimidine-6-carboxamide, di-trifluoroacetate]
- pKi [1]: > 6.30
- pKi [2]: > 6.30

SMILES: Cc1cc(Cl)cc(CNc2cnc3n(c2=O)[C@H](C(=O)N[C@@H]2CCc4nc(N)ccc42)CC3)c1 [Compound 83, (S)—N—((R)-2-amino-6,7-dihydro-5H-cyclopenta[b]pyridin-5-yl)-3-((3-chloro-5-methylbenzyl)amino)-4-oxo-4,6,7,8-tetrahydropyrrolo[1,2-a]pyrimidine-6-carboxamide]
- pKi [1]: > 6.30
- pKi [2]: > 6.30

SMILES: COc1c(C)cccc1CNc1cnc2n(c1=O)[C@H](C(=O)NCc1ccc(N)nc1C)CC2 [Compound 10, (S)—N-((6-amino-2-methylpyridin-3-yl)methyl)-3-((2-methoxy-3-methylbenzyl)amino)-4-oxo-4,6,7,8-tetrahydropyrrolo[1,2-a]pyrimidine-6-carboxamide, trifluoroacetate]
- pKi [1]: 5.60 to 6.30
- pKi [2]: > 6.30

SMILES: COc1c(F)cc(F)cc1CNc1cnc2n(c1=O)[C@H](C(=O)NCc1ccc(N)nc1C)CC2 [Compound 35, (S)-N-((6-amino-2-methylpyridin-3-yl)methyl)-3-((3,5-difluoro-2-methoxybenzyl)amino)-4-oxo-4,6,7,8-tetrahydropyrrolo[1,2-a]pyrimidine-6-carboxamide, trifluoroacetate]
- pKi [1]: 5.60 to 6.30
- pKi [2]: > 6.30

SMILES: Cc1cc(C)cc(CNc2cnc3n(c2=O)[C@@H](C(=O)NCc2ccc(N)nc2C)CC3)c1 [Compound 78]
- pKi [1]: < 4.60
- pKi [2]: 5.00 to 5.60

SMILES: Cc1cc(C)cc(CNc2cnc3n(c2=O)[C@H](C(=O)NCc2ccc(N)nc2C)CC3)c1 [Compound 1, (S)—N-((6-amino-2-methylpyridin-3-yl)methyl)-3-((3,5-dimethylbenzyl)amino)-4-oxo-4,6,7,8-tetrahydropyrrolo[1,2-a]pyrimidine-6-carboxamide]
- pKi [1]: 5.60 to 6.30
- pKi [2]: > 6.30

SMILES: Cc1nc(N)ccc1CNC(=O)[C@@H]1CCc2ncc(NCc3cc(F)cc(C(F)(F)F)c3)c(=O)n21 [Compound 47, (S)-N-((6-amino-2-methylpyridin-3-yl)methyl)-3-((3-fluoro-5-(trifluoromethyl)benzyl)amino)-4-oxo-4,6,7,8-tetrahydro-pyrrolo[1,2-a]pyrimidine-6-carboxamide, di-trifluoroacetate]
- pKi [1]: 5.60 to 6.30
- pKi [2]: > 6.30

SMILES: Cc1cc(C)cc(CNc2cnc3n(c2=O)[C@H](C(=O)NCc2cc4c(s2)CNC4)CC3)c1 [Compound 21, (S)—N-((5,6-dihydro-4H-thieno[2,3-c]pyrrol-2-yl)methyl)-3-((3,5-dimethylbenzyl)amino)-4-oxo-4,6,7,8-tetrahydropyrrolo[1,2-a]pyrimidine-6-carboxamide, trifluoroacetate]
- pKi [1]: 5.00 to 5.60
- pKi [2]: > 6.30

SMILES: Cc1nc(N)ccc1CNC(=O)[C@@H]1CCc2ncc(NCc3cc(OC(F)(F)F)ccc3F)c(=O)n21 [Compound 41, (S)-N-((6-amino-2-methylpyridin-3-yl)methyl)-3-((2-fluoro-5-(trifluoromethoxy)benzyl)amino)-4-oxo-4,6,7,8-tetrahydro-pyrrolo[1,2-a]pyrimidine-6-carboxamide, di-trifluoroacetate]
- pKi [1]: 5.60 to 6.30
- pKi [2]: > 6.30

SMILES: Cc1cc(C#N)cc(CNc2cnc3n(c2=O)[C@H](C(=O)NCc2ccc(N)nc2C)CC3)c1 [Compound 8, (S)—N-((6-amino-2-methylpyridin-3-yl)methyl)-3-((3-cyano-5-methylbenzyl)amino)-4-oxo-4,6,7,8-tetrahydropyrrolo[1,2-a]pyrimidine-6-carboxamide]
- pKi [1]: 5.60 to 6.30
- pKi [2]: > 6.30

SMILES: Nc1ccc2c(n1)CC[C@H]2NC(=O)[C@@H]1CCc2ncc(NCc3ccc4c(c3)OCC4)c(=O)n21 [Compound 99]
- pKi [1]: 5.00 to 5.60
- pKi [2]: > 6.30

SMILES: Cc1nc(N)ccc1CNC(=O)[C@@H]1CCc2ncc(NCc3cccc(Cl)c3)c(=O)n21 [Compound 58]
- pKi [1]: 5.60 to 6.30
- pKi [2]: > 6.30

SMILES: Cc1nc(N)ccc1CNC(=O)[C@@H]1CCc2ncc(NCc3cccc(C(F)(F)F)c3F)c(=O)n21 [Compound 42, (S)-N-((6-amino-2-methylpyridin-3-yl)methyl)-3-((2-fluoro-3-(trifluoromethyl)benzyl)amino)-4-oxo-4,6,7,8-tetrahydro-pyrrolo[1,2-a]pyrimidine-6-carboxamide, di-trifluoroacetate]
- pKi [1]: 5.60 to 6.30
- pKi [2]: > 6.30

SMILES: Cc1nc(N)ccc1CNC(=O)[C@@H]1CCc2ncc(NCc3cccc(C(F)F)c3)c(=O)n21 [Compound 71, (S)—N-((6-amino-2-methylpyridin-3-yl)methyl)-3-((3-(difluoromethyl)benzyl)amino)-4-oxo-4,6,7,8-tetrahydropyrrolo[1,2-a]pyrimidine-6-carboxamide]
- pKi [1]: 5.60 to 6.30
- pKi [2]: > 6.30

SMILES: COc1cc(CNc2cnc3n(c2=O)[C@H](C(=O)NCc2ccc(N)nc2C)CC3)ccc1C [Compound 45, (S)-N-((6-amino-2-methylpyridin-3-yl)methyl)-3-((3-methoxy-4-methylbenzyl)amino)-4-oxo-4,6,7,8-tetrahydropyrrolo[1,2-a]pyrimidine-6-carboxamide, trifluoroacetate]
- pKi [1]: 5.60 to 6.30
- pKi [2]: > 6.30

SMILES: COc1cc(Cl)cc(CNc2cnc3n(c2=O)[C@@H](C(=O)N[C@H](C)c2ccc(N)nc2)CC3)c1 [Compound 77, (R)-N-((R)-1-(6-aminopyridin-3-yl)ethyl)-3-((3-chloro-5-methoxybenzyl)amino)-4-oxo-4,6,7,8-tetrahydropyrrolo[1,2-a]pyrimidine-6-carboxamide]
- pKi [1]: < 4.60
- pKi [2]: > 6.30

SMILES: COc1c(F)ccc(F)c1CNc1cnc2n(c1=O)[C@H](C(=O)NCc1ccc(N)nc1C)CC2 [Compound 36, (S)-N-((6-amino-2-methylpyridin-3-yl)methyl)-3-((3,6-difluoro-2-methoxybenzyl)amino)-4-oxo-4,6,7,8-tetrahydropyrrolo[1,2-a]pyrimidine-6-carboxamide, di-trifluoroacetate]
- pKi [1]: 5.00 to 5.60
- pKi [2]: > 6.30

SMILES: Cc1cc(Cl)cc(CNc2cnc3n(c2=O)[C@H](C(=O)NCc2ccc(N)nc2C)CC3)c1 [Compound 55, (S)-N-((6-amino-2-methylpyridin-3-yl)methyl)-3-((3-chloro-5-methylbenzyl)amino)-4-oxo-4,6,7,8-tetrahydropyrrolo[1,2-a]pyrimidine-6-carboxamide]
- pKi [1]: > 6.30
- pKi [2]: > 6.30
